Measured values taken from patent publication EP1027361B1, “6,11-BRIDGED ERYTHROMYCIN DERIVATIVES” (Abbott Laboratories, priority 1997, dated 1999).

Legend:
Test in all cases: in vitro antibacterial activity, agar dilution MIC
Format in all cases: cell-based
[1] = system: Streptococcus pyogenes EES61; design: unit not given here; conditions: organism code LL, BHI agar, 35-37 °C, 20 to 24 hours
Protocol: (§1) Erythromycin A was used for this purpose.
(§2) After incubation, each plate was visually inspected.

[2] = system: Streptococcus bovis A-5169; design: unit not given here; conditions: organism code JJ, BHI agar, 35-37 °C, 20 to 24 hours
Protocol: as §1, §2

[3] = system: Streptococcus Pheumoniae ATCC6303; design: unit not given here; conditions: organism code XX, BHI agar, 35-37 °C, 20 to 24 hours
Protocol: as §1, §2

[4] = system: Streptococcus agalactiae CMX 508; design: unit not given here; conditions: organism code KK, BHI agar, 35-37 °C, 20 to 24 hours
Protocol: as §1, §2

[5] = system: Staphylococcus aureus ATCC 6538P; design: unit not given here; conditions: organism code AA, BHI agar, 35-37 °C, 20 to 24 hours
Protocol: as §1, §2

[6] = system: Staphylococcus aureus A-5278; conditions: organism code CC, BHI agar, 35-37 °C, 20 to 24 hours
Protocol: (§3) Representative compounds of the present invention were assayed in vitro for antibacterial activity as follows: Twelve petri dishes containing successive aqueous dilutions of the test compound mixed with 10 mL of sterilized Brain Heart Infusion (BHI) agar (Difco 0418-01-5) were prepared. Each plate was inoculated with 1:100 (or 1:10 for slow-growing strains, such as Micrococcus and Streptococcus) dilutions of up to 32 different microorganisms, using a Steers replicator block. […] In addition, a control plate, using BHI agar containing no test compound, was prepared and incubated at the beginning and end of each test
(§4) An additional plate containing a compound having known susceptibility patterns for the organisms being tested and belonging to the same antibiotic class as the test compound was also prepared and incubated as a further control, as well as to provide test-to-test comparability.
(§5) After incubation, each plate was visually inspected. The minimum inhibitory concentration (MIC) was defined as the lowest concentration of drug yielding no growth, a slight haze, or sparsely isolated colonies on the inoculum spot as compared to the growth control.

Escherichia coli DC-2 = conditions: organism code SS, BHI agar, 35-37 °C, 20 to 24 hours
Protocol: as §3, §4, §5

[7] = system: Streptococcus pyogenes 930; conditions: organism code MM, BHI agar, 35-37 °C, 20 to 24 hours
Protocol: as §3, §4, §5

Candida albicans CCH 442 = conditions: organism code TT, BHI agar, 35-37 °C, 20 to 24 hours
Protocol: as §3, §4, §5

[8] = system: Staphylococcus aureus 1775; conditions: organism code GG, BHI agar, 35-37 °C, 20 to 24 hours
Protocol: as §3, §4, §5

[9] = system: Streptococcus pyogenes PIU 2548; conditions: organism code NN, BHI agar, 35-37 °C, 20 to 24 hours
Protocol: as §3, §4, §5

Escherichia coli JUHL = conditions: organism code QQ, BHI agar, 35-37 °C, 20 to 24 hours
Protocol: as §1, §2

[10] = system: Staphylococcus epidermidis 3519; conditions: organism code HH, BHI agar, 35-37 °C, 20 to 24 hours
Protocol: as §1, §2

[11] = system: Micrococcus luteus ATCC 9341; conditions: organism code OO, BHI agar, 35-37 °C, 20 to 24 hours
Protocol: as §1, §2

[12] = system: Staphylococcus aureus CMX 553; conditions: organism code FF, BHI agar, 35-37 °C, 20 to 24 hours
Protocol: as §1, §2

[13] = system: Enterococcus faecium ATCC 8043; conditions: organism code II, BHI agar, 35-37 °C, 20 to 24 hours
Protocol: as §1, §2

[14] = system: Streptococcus Pheumoniae GYR 1171; conditions: organism code YY, BHI agar, 35-37 °C, 20 to 24 hours
Protocol: as §1, §2

[15] = system: Staphylococcus aureus NCTC10649M; conditions: organism code EE, BHI agar, 35-37 °C, 20 to 24 hours
Protocol: as §1, §2

Escherichia coli SS = conditions: organism code RR, BHI agar, 35-37 °C, 20 to 24 hours
Protocol: as §1, §2

[16] = system: Haemophilis Influenzae DILL AMP R; conditions: organism code WW, BHI agar, 35-37 °C, 20 to 24 hours
Protocol: as §1, §2

[17] = system: Staphylococcus aureus CMX 642A; conditions: organism code DD, BHI agar, 35-37 °C, 20 to 24 hours
Protocol: as §1, §2

[18] = system: Nocardia Asteroides ATCC9970; conditions: organism code VV, BHI agar, 35-37 °C, 20 to 24 hours
Protocol: as §1, §2

[19] = system: Streptococcus Pheumoniae 5649; conditions: organism code ZZA, BHI agar, 35-37 °C, 20 to 24 hours
Protocol: as §1, §2

[20] = system: Micrococcus luteus ATCC 4698; conditions: organism code PP, BHI agar, 35-37 °C, 20 to 24 hours
Protocol: as §1, §2

[21] = system: Mycobacterium smegmatis ATCC 114; design: unit not given here; conditions: organism code UU, BHI agar, 35-37 °C, 20 to 24 hours
Protocol: as §3, §4, §5

[22] = system: Staphylococcus aureus A5177; design: unit not given here; conditions: organism code BB, BHI agar, 35-37 °C, 20 to 24 hours
Protocol: as §3, §4, §5

[23] = system: Streptococcus Pheumoniae 5979; conditions: organism code ZZ, BHI agar, 35-37 °C, 20 to 24 hours
Protocol: as §3, §4, §5

| Structure (SMILES) | minimum inhibitory concentration (MIC) [1] | minimum inhibitory concentration (MIC) [2] | minimum inhibitory concentration (MIC) [3] | minimum inhibitory concentration (MIC) [4] | minimum inhibitory concentration (MIC) [5] | minimum inhibitory concentration (MIC) [6] | minimum inhibitory concentration (MIC) (Escherichia coli DC-2) | minimum inhibitory concentration (MIC) [7] | minimum inhibitory concentration (MIC) (Candida albicans CCH 442) | minimum inhibitory concentration (MIC) [8] | minimum inhibitory concentration (MIC) [9] | minimum inhibitory concentration (MIC) (Escherichia coli JUHL) | minimum inhibitory concentration (MIC) [10] | minimum inhibitory concentration (MIC) [11] | minimum inhibitory concentration (MIC) [12] | minimum inhibitory concentration (MIC) [13] | minimum inhibitory concentration (MIC) [14] | minimum inhibitory concentration (MIC) (Escherichia coli SS) | minimum inhibitory concentration (MIC) [16] | minimum inhibitory concentration (MIC) [17] | also measured |
| --- | --- | --- | --- | --- | --- | --- | --- | --- | --- | --- | --- | --- | --- | --- | --- | --- | --- | --- | --- | --- | --- |
| CC[C@H]1OC(=O)[C@H](C)[C@@H](O[C@H]2C[C@@](C)(OC)[C@@H](O)[C@H](C)O2)[C@H](C)[C@@H](O[C@@H]2O[C@H](C)C[C@H](N(C)C)[C@H]2O)[C@](C)(O)C[C@@H](C)C(=O)[C@H](C)[C@@H](O)[C@]1(C)O [Ery. A, Erythromycin A, reference compound] | 0.05 | 0.02 | 0.06 | 0.05 | 0.2 | >100 | >100 | >100 | >100 | >100 | 6.2 | >100 | 0.39 | 0.05 | 0.39 | 0.05 | 0.06 | 0.78 | 4 | 0.39 | minimum inhibitory concentration (MIC) [15]: 0.39; minimum inhibitory concentration (MIC) [18]: 0.1; minimum inhibitory concentration (MIC) [19]: 16; minimum inhibitory concentration (MIC) [20]: 0.2; minimum inhibitory concentration (MIC) [21]: 3.1; minimum inhibitory concentration (MIC) [22]: 3.1 |
| CC[C@H]1OC(=O)[C@H](C)[C@@H](O[C@H]2C[C@@](C)(OC)[C@@H](O)[C@H](C)O2)[C@H](C)[C@@H](O[C@@H]2O[C@H](C)C[C@H](N(C)C)[C@H]2O)[C@@]2(C)C[C@@H](C)C(=O)[C@H](C)[C@H]3N(CCNC(=O)c4ccccc4C=CCO2)C(=O)O[C@]13C [Example 4, Compound of Formula (I), 2'-R^p is H, 4"-R^p is H, m is 2, A is NH, B is -C(O)-(CH2)q-, q is 0, D is 1,2-phenylene, E is-(CH2)r-CH=CH-, r is 0, n is 1] | 0.39 | 0.2 | 0.03 | 0.2 | 1.56 | >100 | >100 | >100 | >100 | >100 | 12.5 | 100 | 1.56 | 0.2 | 1.56 | 0.39 | 0.03 | 6.2 | 16 | 1.56 | minimum inhibitory concentration (MIC) [23]: >128; minimum inhibitory concentration (MIC) [18]: 0.2; minimum inhibitory concentration (MIC) [19]: 16; minimum inhibitory concentration (MIC) [20]: 1.56; minimum inhibitory concentration (MIC) [21]: 3.1; minimum inhibitory concentration (MIC) [22]: 25 |
| CC[C@H]1OC(=O)[C@H](C)[C@@H](O[C@H]2C[C@@](C)(OC)[C@@H](O)[C@H](C)O2)[C@H](C)[C@@H](O[C@@H]2O[C@H](C)C[C@H](N(C)C)[C@H]2O)[C@@]2(C)C[C@@H](C)C(=O)[C@H](C)[C@H]3N(CCNC(=O)Cc4ccccc4C=CCO2)C(=O)O[C@]13C [Example 6, Compound of Formula (I), 2'-R^p is H, 4"-R^p is H, m is 2, A is NH, B is -C(O)-(CH2)q-, q is 1, D is 1,2-phenylene, E is-(CH2)r-CH=CH-, r is 0, n is 1] | 0.2 | 0.1 | 0.03 | 0.1 | 0.78 | >100 | >100 | >100 | >100 | >100 | 12.5 | 100 | 0.78 | 0.1 | 0.78 | 0.39 | 0.03 | 3.1 | 8 | 1.56 | minimum inhibitory concentration (MIC) [23]: >128; minimum inhibitory concentration (MIC) [15]: 1.56; minimum inhibitory concentration (MIC) [18]: 0.39; minimum inhibitory concentration (MIC) [19]: 16; minimum inhibitory concentration (MIC) [20]: 0.78; minimum inhibitory concentration (MIC) [21]: 0.39; minimum inhibitory concentration (MIC) [22]: 12.5 |
| CC[C@H]1OC(=O)[C@H](C)[C@@H](O[C@H]2C[C@@](C)(OC)[C@@H](O)[C@H](C)O2)[C@H](C)[C@@H](O[C@@H]2O[C@H](C)C[C@H](N(C)C)[C@H]2O)[C@@]2(C)C[C@@H](C)C(=O)[C@H](C)[C@H]3N(CCNCc4cccc(c4)C=CCO2)C(=O)O[C@]13C [Example 11, Compound of Formula (I), 2'-R^p is H, 4"-R^p is H, m is 2, A is NH, B is-(CH2)q-, q is 1, D is 1,3-phenylene, E is-(CH2)r-CH=CH-, r is 0, n is 1] | 0.2 | 0.1 | 0.12 | 0.1 | 3.1 | >100 | >100 | >100 | >100 | >100 | 12.5 | >100 | 3.1 | 0.2 | 3.1 | 0.2 | 0.25 | 6.2 | 32 | 3.1 | minimum inhibitory concentration (MIC) [23]: >128; minimum inhibitory concentration (MIC) [18]: 0.2; minimum inhibitory concentration (MIC) [19]: 32; minimum inhibitory concentration (MIC) [20]: 3.1; minimum inhibitory concentration (MIC) [21]: 0.2; minimum inhibitory concentration (MIC) [22]: 50 |
